Reference: paper PMC10051969, “Exploring Probenecid Derived 1,3,4-Oxadiazole-Phthalimide Hybrid as α-Amylase Inhibitor: Synthesis, Structural Investigation, and Molecular Modeling” (Pharmaceuticals, 2023)
Converted amounts (≈) assume the structure as drawn.

Biological target: α-amylase
Experiment: DNS colorimetric α-amylase assay, starch substrate, absorbance at […] nm
Type: biochemical

SMILES: CCCN(CCC)S(=O)(=O)c1ccc(-c2nnc(SCN3C(=O)c4ccccc4C3=O)o2)cc1 [PESMP, 4-(5-((1,3-Dioxoisoindolin-2-yl)methylthio)-1,3,4-oxadiazol-2-yl)-N,N-dipropylbenzene-sulfonamide]
- IC50 Value: 10.60 ± 0.16 µg/mL (≈ 21.2 µM)
